Reference: ChEMBL document CHEMBL4673372, “1,2,3-triazole-thiazole hybrids: Synthesis, in vitro antimicrobial activity and antibiofilm studies” (Bioorg Med Chem Lett, 2021)
pIC50: −log10 of the molar value. Values after ≈ are worked out from the molar mass of the structure shown.

Experiments:
Candida albicans [1] = assay: Antifungal activity against Candida albicans MTCC 227; format: functional
Candida albicans [2] = assay: Antifungal activity against Candida albicans MTCC 1637; format: functional
Escherichia coli [3] = assay: Antibacterial activity against Escherichia coli MTCC 739 assessed as inhibition of bacterial growth by microtiter broth dilution method; format: functional
Staphylococcus aureus [4] = assay: Antibacterial activity against Staphylococcus aureus MTCC 96 assessed as inhibition of bacterial growth by microtiter broth dilution method; format: functional
Staphylococcus aureus [5] = assay: Antibacterial activity against Staphylococcus aureus MLS16 MTCC 2940 assessed as inhibition of bacterial growth by microtiter broth dilution method; format: functional
Candida albicans [6] = assay: Antifungal activity against Candida albicans MTCC 4748; format: functional
Micrococcus luteus [7] = assay: Antibacterial activity against Micrococcus luteus MTCC 2470 assessed as inhibition of bacterial growth by microtiter broth dilution method; format: functional
Pichia sporocuriosa [8] = assay: Antifungal activity against Issatchenkia hanoiensis MTCC 4755; format: functional
[9] = Selectivity index, ratio of CC50 for human THP-1 cells to MIC for Staphylococcus aureus MTCC 96; format: toxicity
Candida albicans [10] = assay: Antifungal activity against Candida albicans MTCC 3018; format: functional
Micrococcus luteus [11] = assay: Bactericidal activity against Micrococcus luteus MTCC 2470; format: functional
Staphylococcus aureus [12] = assay: Bactericidal activity against Staphylococcus aureus MTCC 96; format: functional
Bacillus subtilis [13] = assay: Inhibition of biofilm formation in Bacillus subtilis MTCC 121 incubated for 24 hrs by crystal violet staining based microtiter plate method; format: functional, organism-based; conditions: Bacillus subtilis, MTCC 121, 24 h; read-out: IC50
Raoultella planticola [14] = assay: Inhibition of biofilm formation in Klebsiella planticola MTCC 530 incubated for 24 hrs by crystal violet staining based microtiter plate method; format: functional, organism-based; conditions: Klebsiella planticola, MTCC 530, 24 h; read-out: IC50
[Candida] aaseri = Antifungal activity against Candida aaseri MTCC 1962; format: functional; conditions: Yamadazyma aaseri
Bacillus subtilis [15] = assay: Antibacterial activity against Bacillus subtilis MTCC 121 assessed as inhibition of bacterial growth by microtiter broth dilution method; format: functional
Candida albicans [16] = assay: Antifungal activity against Candida albicans MTCC 854; format: functional
Nakaseomyces glabratus = assay: Antifungal activity against Candida glabrata MTCC 3019; format: functional
Candida albicans [17] = assay: Antifungal activity against Candida albicans MTCC 183; format: functional
Staphylococcus aureus [18] = assay: Inhibition of biofilm formation in Staphylococcus aureus MLS16 MTCC 2940 incubated for 24 hrs by crystal violet staining based microtiter plate method; format: functional, organism-based
Bacillus subtilis [19] = assay: Bactericidal activity against Bacillus subtilis MTCC 121; format: functional
[20] = Cytotoxicity against human THP-1 cells; format: cell-based
Candida albicans [21] = assay: Antifungal activity against Candida albicans MTCC 3958; format: functional
Pseudomonas aeruginosa [22] = assay: Inhibition of biofilm formation in Pseudomonas aeruginosa MTCC 2453 incubated for 24 hrs by crystal violet staining based microtiter plate method; format: functional, organism-based; conditions: Pseudomonas aeruginosa, MTCC 2453, 24 h; read-out: IC50
Pseudomonas aeruginosa [23] = assay: Antibacterial activity against Pseudomonas aeruginosa MTCC 2453 assessed as inhibition of bacterial growth by microtiter broth dilution method; format: functional
Raoultella planticola [24] = assay: Bactericidal activity against Klebsiella planticola MTCC 530; format: functional
Escherichia coli [25] = assay: Bactericidal activity against Escherichia coli MTCC 739; format: functional
Candida albicans [26] = assay: Fungicidal activity against Candida albicans MTCC 183; format: functional
Escherichia coli [27] = assay: Inhibition of biofilm formation in Escherichia coli MTCC 739 incubated for 24 hrs by crystal violet staining based microtiter plate method; format: functional, organism-based; conditions: Escherichia coli, MTCC 739, 24 h; read-out: IC50
Micrococcus luteus [28] = assay: Inhibition of biofilm formation in Micrococcus luteus MTCC 2470 incubated for 24 hrs by crystal violet staining based microtiter plate method; format: functional, organism-based; conditions: for pIC50: Micrococcus luteus, MTCC 2470, 24 h, read-out: IC50
Pseudomonas aeruginosa [29] = assay: Bactericidal activity against Pseudomonas aeruginosa MTCC 2453; format: functional
Candida albicans [30] = assay: Inhibition of biofilm formation in Candida albicans MTCC 3017 incubated for 24 hrs by crystal violet staining based microtiter plate method; format: functional, organism-based; conditions: for pIC50: Candida albicans, MTCC 3017, 24 h, read-out: IC50
Candida parapsilosis = assay: Antifungal activity against Candida parapsilosis MTCC 1745; format: functional; conditions: Lodderomyces parapsilosis
Staphylococcus aureus [31] = assay: Inhibition of biofilm formation in Staphylococcus aureus […] incubated for 24 hrs by crystal violet staining based microtiter plate method; format: functional, organism-based; conditions: for pIC50: Staphylococcus aureus, MTCC 92, 24 h, read-out: IC50
Raoultella planticola [32] = assay: Antibacterial activity against Klebsiella planticola MTCC 530 assessed as inhibition of bacterial growth by microtiter broth dilution method; format: functional
THP-1 [33] = assay: Cytotoxicity against human THP-1 cells assessed as reduction in cell viability at 200 uM by MTT assay; format: cell-based; conditions: thp-1, 200 µM
Candida albicans [34] = assay: Fungicidal activity against Candida albicans MTCC 854; format: functional
THP-1 [35] = assay: Cytotoxicity against human THP-1 cells assessed as cell damage at 200 uM by LDH assay; format: cell-based; conditions: thp-1, 200 µM
Pichia kudriavzevii = assay: Antifungal activity against Candida krusei MTCC 3020; format: functional
Pichia sporocuriosa [36] = assay: Fungicidal activity against Issatchenkia hanoiensis MTCC 4755; format: functional
Staphylococcus aureus [37] = assay: Bactericidal activity against Staphylococcus aureus MLS16 MTCC 2940; format: functional

MIC (Candida albicans [1]) [µM]	MIC (Candida albicans [2]) [µM]	MIC (Escherichia coli [3]) [µM]	MIC (Staphylococcus aureus [4]) [µM]	MIC (Staphylococcus aureus [5]) [µM]	MIC (Candida albicans [6]) [µM]	MIC (Micrococcus luteus [7]) [µM]	MIC (Pichia sporocuriosa [8]) [µM]	MIC (Bacillus subtilis [15]) [µM]	MIC (Pseudomonas aeruginosa [23]) [µM]	Compound	selectivity ratio [9]	MBC (Micrococcus luteus [11]) [µM]	MBC (Staphylococcus aureus [12]) [µM]	pIC50 (Raoultella planticola [14])	MBC (Bacillus subtilis [19]) [µM]	pIC50 (Pseudomonas aeruginosa [22])	MBC (Raoultella planticola [24]) [µM]	pIC50 (Escherichia coli [27])	MBC (Pseudomonas aeruginosa [29]) [µM]	MIC (Raoultella planticola [32]) [µM]	other results
> 208	> 208	6.5 (≈ 3.9 µg/mL)	6.5 (≈ 3.9 µg/mL)	> 208	> 208	12.9 (≈ 7.75 µg/mL)	6.5 (≈ 3.9 µg/mL)	6.5 (≈ 3.9 µg/mL)	12.9 (≈ 7.75 µg/mL)	COc1ccc(-n2cc(COc3ccc(/C=N/Nc4nc(-c5cc6c(ccc7ccccc76)oc5=O)cs4)cc3)nn2)cc1	5.12	25.9 (≈ 15.6 µg/mL)	21.4 (≈ 12.9 µg/mL)	4.22	12.9 (≈ 7.75 µg/mL)	4.52	12.9 (≈ 7.75 µg/mL)	3.90	51.9 (≈ 31.2 µg/mL)	3.1 (≈ 1.86 µg/mL)	MIC (Candida albicans [10]): > 208 µM; pIC50 (Bacillus subtilis [13]): 4.43; MIC ([Candida] aaseri): > 208 µM; MIC (Candida albicans [16]): 6.5 µM (≈ 3.9 µg/mL); MIC (Nakaseomyces glabratus): > 208 µM; MIC (Candida albicans [17]): 13 µM (≈ 7.81 µg/mL); pIC50 (Staphylococcus aureus [18]; Staphylococcus aureus, MLS16 MTCC 2940, 24 h, read-out: IC50): 4.29; CC50 [20]: 33.3 µM; MIC (Candida albicans [21]): > 208 µM; MBC (Escherichia coli [25]): 25.9 µM (≈ 15.6 µg/mL); MFC (Candida albicans [26]): 51.9 µM (≈ 31.2 µg/mL); pIC50 (Micrococcus luteus [28]): 4.40; pIC50 (Candida albicans [30]): 4.34; MIC (Candida parapsilosis): > 208 µM; pIC50 (Staphylococcus aureus [31]): 4.52; Activity (THP-1 [33]): Toxic; MFC (Candida albicans [34]): 13 µM (≈ 7.81 µg/mL); Activity (THP-1 [35]): Toxic; MIC (Pichia kudriavzevii): > 208 µM; MFC (Pichia sporocuriosa [36]): 13 µM (≈ 7.81 µg/mL)
> 227	> 227	> 227	14.1 (≈ 7.76 µg/mL)	> 227	> 227	7 (≈ 3.85 µg/mL)	7.1 (≈ 3.91 µg/mL)	7 (≈ 3.85 µg/mL)	14.1 (≈ 7.76 µg/mL)	COc1ccc(-n2cc(COc3ccc(/C=N/Nc4nc(-c5cc6ccccc6oc5=O)cs4)cc3)nn2)cc1	2.58	14.1 (≈ 7.76 µg/mL)	28.3 (≈ 15.6 µg/mL)	4.45	14.1 (≈ 7.76 µg/mL)	4.71	28.3 (≈ 15.6 µg/mL)	4.50	56.6 (≈ 31.2 µg/mL)	14.1 (≈ 7.76 µg/mL)	MIC (Candida albicans [10]): > 227 µM; pIC50 (Bacillus subtilis [13]): 5.18; MIC ([Candida] aaseri): > 227 µM; MIC (Candida albicans [16]): 7.1 µM (≈ 3.91 µg/mL); MIC (Nakaseomyces glabratus): > 227 µM; MIC (Candida albicans [17]): 14.2 µM (≈ 7.82 µg/mL); IC50 (Staphylococcus aureus [18]): Not Active; CC50 [20]: 36.3 µM; MIC (Candida albicans [21]): > 227 µM; MFC (Candida albicans [26]): 56.7 µM (≈ 31.2 µg/mL); IC50 (Micrococcus luteus [28]): Not Active; pIC50 (Candida albicans [30]): 4.20; MIC (Candida parapsilosis): > 227 µM; IC50 (Staphylococcus aureus [31]): Not Active; Activity (THP-1 [33]): Toxic; MFC (Candida albicans [34]): 14.2 µM (≈ 7.82 µg/mL); Activity (THP-1 [35]): Toxic; MIC (Pichia kudriavzevii): > 227 µM; MFC (Pichia sporocuriosa [36]): 14.2 µM (≈ 7.82 µg/mL)
> 215	> 215	6.7 (≈ 3.89 µg/mL)	3.71 (≈ 2.15 µg/mL)	3.71 (≈ 2.15 µg/mL)	> 215	3.71 (≈ 2.15 µg/mL)	6.7 (≈ 3.89 µg/mL)	3.71 (≈ 2.15 µg/mL)	13.4 (≈ 7.78 µg/mL)	COc1ccc(-n2cc(COc3ccc(/C=N/Nc4nc(-c5cc6cccc(OC)c6oc5=O)cs4)cc3)nn2)cc1	9.28	13.4 (≈ 7.78 µg/mL)	13.4 (≈ 7.78 µg/mL)	4.40	13.4 (≈ 7.78 µg/mL)	4.33	6.7 (≈ 3.89 µg/mL)	4.17	28.8 (≈ 16.7 µg/mL)	3.2 (≈ 1.86 µg/mL)	MIC (Candida albicans [10]): > 215 µM; pIC50 (Bacillus subtilis [13]): 4.78; MIC ([Candida] aaseri): > 215 µM; MIC (Candida albicans [16]): > 215 µM; MIC (Nakaseomyces glabratus): > 215 µM; MIC (Candida albicans [17]): 13.4 µM (≈ 7.78 µg/mL); IC50 (Staphylococcus aureus [18]): Not Active; MBC (Staphylococcus aureus [37]): 13.4 µM (≈ 7.78 µg/mL); CC50 [20]: 34.5 µM; MIC (Candida albicans [21]): > 215 µM; MBC (Escherichia coli [25]): 6.7 µM (≈ 3.89 µg/mL); MFC (Candida albicans [26]): 26.9 µM (≈ 15.6 µg/mL); pIC50 (Micrococcus luteus [28]): 3.81; pIC50 (Candida albicans [30]): 4.45; MIC (Candida parapsilosis): > 215 µM; pIC50 (Staphylococcus aureus [31]): 4.87; Activity (THP-1 [33]): Toxic; Activity (THP-1 [35]): Toxic; MIC (Pichia kudriavzevii): > 215 µM; MFC (Pichia sporocuriosa [36]): 13.4 µM (≈ 7.78 µg/mL)
		2.7 (≈ 0.895 µg/mL)	2.7 (≈ 0.895 µg/mL)	2.7 (≈ 0.895 µg/mL)		2.7 (≈ 0.895 µg/mL)		2.7 (≈ 0.895 µg/mL)	2.7 (≈ 0.895 µg/mL)	O=C(O)c1cn(C2CC2)c2cc(N3CCNCC3)c(F)cc2c1=O [CIPROFLOXACIN]		2.7 (≈ 0.895 µg/mL)	2.7 (≈ 0.895 µg/mL)	6.10	2.7 (≈ 0.895 µg/mL)	6.30	2.7 (≈ 0.895 µg/mL)	6.22	2.7 (≈ 0.895 µg/mL)	2.7 (≈ 0.895 µg/mL)	MBC (Staphylococcus aureus [37]): 2.7 µM (≈ 0.895 µg/mL); MBC (Escherichia coli [25]): 2.7 µM (≈ 0.895 µg/mL); IC50 (Candida albicans [30]): Not Active
